Source: patent US8703790B2, “Bis [O-(14-benzoylaconine-8-yl)] esters” (priority 2008, dated 2014)

How the values were obtained:
A549 (lung cancer) = test: In vitro cytotoxicity test (MTT) against human tumour cell line A549; assay type: cell-based; conditions: A549, 24 h contact, 48 h re-growth
Method: (§1) Human tumour cell lines A549 (lung cancer), HCT-15 (colon cancer) and MCF-7 (breast cancer) have been obtained from the Developmental Therapeutics Program of the National Cancer Institute (Rockville, Md., USA). Cells were routinely grown with RPMI 1640 medium supplemented with 10% foetal calf serum, both obtained from Biochrom AG (Berlin, Germany). They were grown on Petri dishes (Nunc, Denmark) at 37° C. in a humidified atmosphere containing 5% CO2. Cells were replicated every 4 days and the medium changed once in-between.
(§2) Cytotoxicity has been evaluated on exponentially growing cells grown for 24 h in presence of the compounds to be tested. Briefly, 4000 cells were seeded in 96-well plates with 200 μL of complete medium; 24 hours later the medium was supplemented with a series of different concentrations of compounds and the contact maintained for 24 h. Compounds were dissolved in pure water and sterilised using polycarbonate membrane filters of 0.22 μm (Millipore, Molsheim, France). The cells were then allowed to re-grow for 48 hours; viable and metabolically active cells were quantitatively estimated by coloration with the MTT dye (1-(4,5-dimethylthyazol-2-yl)-3,5-diphenylformazan), Sigma-Aldrich Chimie, Saint-Quentin-Fallavier, France). The amount of substance allowing a 50% decrease in cell numbers is indicative of the cytotoxicity and represents the IC50 of compound.

HCT-15 (colon cancer) = test: In vitro cytotoxicity test (MTT) against human tumour cell line HCT-15; assay type: cell-based; conditions: HCT-15, 24 h contact, 48 h re-growth
Method: as §1, §2

MCF-7 (breast cancer) = test: In vitro cytotoxicity test (MTT) against human tumour cell line MCF-7; assay type: cell-based; conditions: MCF-7, 24 h contact, 48 h re-growth
Method: as §1, §2

[1] = background statement; cited from earlier work
MCF-7 = conditions: MCF-7, NCI data base values; cited from earlier work
HCT-15 = conditions: HCT-15, NCI data base values; cited from earlier work
A549 = conditions: A549, NCI data base values; cited from earlier work
mouse tumours = mouse tumours in vivo; cited from earlier work
[2] = tested on: mitochondrial oxidoreductases; conditions: tumour cells; Picardo et al. 1985; cited from earlier work
[3] = tested on: HTC-15 (colon cancer), A549 (lung cancer), MCF-7 (breast cancer); conditions: HTC-15, A549, MCF-7; publication A. Chodoeva et al.; read-out: IC50 in these three cell lines; cited from earlier work

Structure (SMILES)	IC50 (A549 (lung cancer)) [µM]	IC50 (HCT-15 (colon cancer)) [µM]	IC50 (MCF-7 (breast cancer)) [µM]	IC50 (MCF-7) [µM]	IC50 (HCT-15) [µM]	IC50 (A549) [µM]	also measured
CCN1C[C@]2(COC)[C@H](O)C[C@H](OC)[C@]34C1[C@H]([C@H](OC)[C@H]23)[C@]1(OC(=O)CCCCCC(=O)O[C@]23[C@H]5[C@@H](OC(=O)c6ccccc6)[C@](O)(C[C@H]5[C@@]56C7[C@@H]2[C@H](OC)[C@@H]5[C@](COC)(CN7CC)[C@H](O)C[C@@H]6OC)[C@@H](OC)[C@@H]3O)[C@H]2[C@@H](OC(=O)c3ccccc3)[C@](O)(C[C@H]24)[C@@H](OC)[C@@H]1O [PDD, bis[O-(14-benzoylaconine-8-yl)]-pimelate]	3.76	3.76	7.5				
CCN1C[C@]2(COC)[C@H](O)C[C@H](OC)[C@]34C1[C@H]([C@H](OC)[C@H]23)[C@]1(OC(=O)CCCCCCCC(=O)O[C@]23[C@H]5[C@@H](OC(=O)c6ccccc6)[C@](O)(C[C@H]5[C@@]56C7[C@@H]2[C@H](OC)[C@@H]5[C@](COC)(CN7CC)[C@H](O)C[C@@H]6OC)[C@@H](OC)[C@@H]3O)[C@H]2[C@@H](OC(=O)c3ccccc3)[C@](O)(C[C@H]24)[C@@H](OC)[C@@H]1O [ADD, bis[O-(14-benzoylaconine-8-yl)]-azelate]	19.1	22	15.5				
CCN1C[C@]2(COC)[C@H](O)C[C@H](OC)[C@]34C1[C@H]([C@H](OC)[C@H]23)[C@]1(O)[C@H]2[C@@H](O)[C@](O)(C[C@H]24)[C@@H](OC)[C@@H]1O [Aconine]							antiproliferative activity [1]: devoid of antiproliferative activity
COc1cc([C@@H]2c3cc4c(cc3[C@@H](O[C@@H]3O[C@@H]5CO[C@@H](C)O[C@H]5[C@H](O)[C@H]3O)[C@H]3COC(=O)[C@H]23)OCO4)cc(OC)c1O [etoposide]				5.73	17.6	3.61	
N[C@@H](Cc1ccc(N(CCCl)CCCl)cc1)C(=O)O [mephalan]				11.1	39.4	28.7	
N.N.[Cl][Pt][Cl] [cisplatin]				3.01	7.21	3.08	
O=c1[nH]cc(F)c(=O)[nH]1 [5-FU, fluorouracil]				1.75	5.69	2.11	
O=C(O)CCCCCCCC(=O)O [Azelaic acid, azelaic acid]							antitumour activity (mouse tumours): total absence of antitumour activity; inhibition of mitochondrial oxidoreductases [2]: inhibitor of mitochondrial oxidoreductases
CCN1CC2(COC)C(O)CC(OC)C34C5CC6(O)C(OC)C(O)C(OC(=O)CCCCCCCC(=O)O)(C5C6OC(=O)c5ccccc5)C(C(OC)C23)C14 (stereo not shown) [8-O-azeloyl-14-benzoylaconine, reference compound]	16.8	19.4	10.3				IC50 [3]: 10 to 18 µM
